Calls of active or inactive are those of the source. How the calls were made is not given here.
Tested on: GENE-TOX genotoxicity assays, various organisms and cells
Assay: GENE-TOX mutagenicity studies
Conditions: for call: Assay Type: In vivo carcinogenicity studies
[1] = Species/Cell Type: Human diploid fibroblasts, Assay Type: Unscheduled DNA synthesis (UDS) in vitro, DNA effects, Assay Code: UDH-, Evaluation Type: Evaluation A (Pre-1980)
[2] = Species/Cell Type: Saccharomyces cerevisiae, Assay Type: Mitotic recombination or gene conversion, Assay Code: YEH-, Evaluation Type: Evaluation A (Pre-1980)
[3] = Species/Cell Type: Salmonella typhimurium (one or more of the five standard strains: TA98, TA100, TA1535, TA1537, and TA1538), Assay Type: Histidine reverse gene mutation, Ames assay, Assay Code: SAL+, Evaluation Type: Evaluation A (Pre-1980)
[4] = Species/Cell Type: Chinese hamster ovary (CHO) cells, Assay Type: Forward gene mutation at the HPRT locus, Assay Code: CHO+, Evaluation Type: Evaluation B (Post-1980)
[5] = Species/Cell Type: Fischer rat embryo (RLV/1706) cells, Assay Type: Cell transformation, viral enhanced, Assay Code: CTR+, Evaluation Type: Evaluation A (Pre-1980)
[6] = Species/Cell Type: Salmonella typhimurium (one or more of the five standard strains: TA98, TA100, TA1535, TA1537, and TA1538), Assay Type: Histidine reverse gene mutation, Ames assay, Assay Code: SAL+*, Activation: With metabolic activation, Evaluation Type: Evaluation A (Pre-1980)
[7] = Species/Cell Type: Drosophila melanogaster, Assay Type: Sex-linked recessive lethal gene mutation, Assay Code: SRL+, Evaluation Type: Evaluation A (Pre-1980)
[8] = Species/Cell Type: Drosophila melanogaster, Assay Type: Sex-linked recessive lethal gene mutation, Assay Code: SRL-, Evaluation Type: Evaluation A (Pre-1980)
[9] = Species/Cell Type: Chinese hamster lung (V79) cells, Assay Type: Forward gene mutation at the HPRT or ouabain locus, Assay Code: V79+, Evaluation Type: Evaluation A (Pre-1980)

SMILES: CC1(C)C(C=C(Cl)Cl)C1C(=O)OCc1cccc(Oc2ccccc2)c1 (stereo not given)
- mutagenic call [1]: inactive; negative
- mutagenic call [2]: inactive; negative

SMILES: O=C(O)Cc1ccccc1[N+](=O)[O-]
- mutagenic call [3]: active; positive

SMILES: O=C1c2ccccc2C(=O)N1CC1CO1 (stereo not given)
- mutagenic call [4]: active; positive

SMILES: CC1=CC(=C(c2ccc(N)cc2)c2ccc(N)cc2)C=CC1=N (tested in a mixture with another compound)
- mutagenic call (Species/Cell Type: Saccharomyces cerevisiae, Assay Type: Forward gene mutation, Assay Code: YEFT, Evaluation Type: Evaluation A (Pre-1980)): no conclusion

SMILES: O=[N+]([O-])c1cccc2cc[nH]c12
- mutagenic call [3]: active; positive

SMILES: Nc1ccc(-c2ccc(N)c(Cl)c2)cc1Cl
- mutagenic call [5]: active; positive
- mutagenic call (Species/Cell Type: Human diploid fibroblasts, Assay Type: Unscheduled DNA synthesis (UDS) in vitro, DNA effects, Assay Code: UDHT, Evaluation Type: Evaluation A (Pre-1980)): no conclusion
- mutagenic call (Species/Cell Type: Mammalian polychromatic erythrocytes, Assay Type: Micronucleus test, chromosome aberrations, Assay Code: MNT+, Evaluation Type: Evaluation B (Post-1980)): active; positive
- call (Species/Cell Type: Nonhuman, Assay Code: CCG+, Evaluation Type: Evaluation A (Pre-1980)): active; positive
- mutagenic call [6]: active; positive
- mutagenic call [3]: active; positive
- mutagenic call (Species/Cell Type: Syrian hamster embryo (SA7/SHE) cells, Assay Type: Cell transformation, viral enhanced, Assay Code: CT7+, Evaluation Type: Evaluation A (Pre-1980)): active; positive

SMILES: CC(C)(OO)c1ccccc1
- mutagenic call (Species/Cell Type: Saccharomyces cerevisiae, Assay Type: Mitotic recombination or gene conversion, Assay Code: YEC-, Evaluation Type: Evaluation A (Pre-1980)): inactive; negative

SMILES: C=CCN=C=S
- mutagenic call [7]: active; positive
- mutagenic call [8]: inactive; negative

SMILES: Clc1nc(Cl)nc(Nc2ccccc2Cl)n1
- mutagenic call [5]: active; positive
- call (Species/Cell Type: Nonhuman, Assay Code: CCG-, Evaluation Type: Evaluation A (Pre-1980)): inactive; negative

SMILES: Cc1c2c(c(C)c3c1ccc1ccccc13)C=C[C@@H](O)[C@@H]2O
- mutagenic call [9]: active; positive
- mutagenic call (Species/Cell Type: Mouse prostate cells, Assay Type: Cell transformation, Assay Code: CTM+D, Dose Response: With dose response, Evaluation Type: Evaluation A (Pre-1980)): active; positive
- call (Species/Cell Type: Nonhuman, Assay Code: CCGT, Evaluation Type: Evaluation A (Pre-1980)): no conclusion

SMILES: O=NN1CCC(c2ccccc2)CC1
- mutagenic call [6]: active; positive

SMILES: C=COCC(F)(F)F
- mutagenic call (Species/Cell Type: Nonhuman, Assay Type: Sister-chromatid exchange (SCE) in vitro, Assay Code: SC2+, Evaluation Type: Evaluation B (Post-1980)): active; positive
- mutagenic call [6]: active; positive
- mutagenic call (Species/Cell Type: Salmonella typhimurium and Escherichia coli, Assay Type: Forward and reverse gene mutation, body fluid assay, Assay Code: BFB-, Evaluation Type: Evaluation A (Pre-1980)): inactive; negative

SMILES: ClC1=C(Cl)C2(Cl)C3C(Cl)C(Cl)CC3C1(Cl)C2(Cl)Cl (stereo not given)
- mutagenic call [9]: active; positive
- call (Species/Cell Type: Nonhuman, Assay Code: CCG+L, Evaluation Type: Evaluation A (Pre-1980)): active; positive
- mutagenic call (Species/Cell Type: Rodents, Sex: Male, Assay Type: Dominant lethal test, Assay Code: DLTT, Evaluation Type: Evaluation A (Pre-1980)): no conclusion
- mutagenic call (Species/Cell Type: Zea mays (corn), Assay Type: Gene mutation, Assay Code: ZEM+, Evaluation Type: Evaluation A (Pre-1980)): active; positive

SMILES: CNc1ccc(O)cc1
- mutagenic call (Species/Cell Type: Allium cepa, Assay Type: Chromosome aberrations, Assay Code: ALCT, Evaluation Type: Evaluation A (Pre-1980)): no conclusion
- mutagenic call (Species/Cell Type: Neurospora crassa, Assay Type: Aneuploidy, chromosome aberrations, Assay Code: NEN-, Evaluation Type: Evaluation A (Pre-1980)): inactive; negative

SMILES: CCCOP(=S)(OCCC)OP(=S)(OCCC)OCCC
- mutagenic call (Species/Cell Type: Bacillus subtilis (H17 vs M45), Assay Type: Rec-assay, spot test, DNA effects (bacterial DNA repair), Assay Code: REWT, Evaluation Type: Evaluation A (Pre-1980)): no conclusion
- mutagenic call [8]: inactive; negative
- mutagenic call (Species/Cell Type: Escherichia coli WP2 UVRA, Assay Type: Tryptophan reverse gene mutation, Assay Code: WPU-*, Activation: With metabolic activation, Evaluation Type: Evaluation A (Pre-1980)): inactive; negative
- mutagenic call (Species/Cell Type: Escherichia coli polA (W3119 vs P3478), Assay Type: Rec-assay, DNA effects (bacterial DNA repair), Assay Code: RE1T, Evaluation Type: Evaluation A (Pre-1980)): no conclusion
- mutagenic call [1]: inactive; negative
- mutagenic call [2]: inactive; negative
- mutagenic call (Species/Cell Type: Salmonella typhimurium (one or more of the five standard strains: TA98, TA100, TA1535, TA1537, and TA1538), Assay Type: Histidine reverse gene mutation, Ames assay, Assay Code: SAL-, Evaluation Type: Evaluation A (Pre-1980)): inactive; negative

SMILES: C=CC(OC(C)=O)c1ccc2c(c1)OCO2 (stereo not given)
- mutagenic call (Species/Cell Type: Escherichia coli polA (W3119 vs P3478), Assay Type: Rec-assay, DNA effects (bacterial DNA repair), Assay Code: RE1+, Evaluation Type: Evaluation A (Pre-1980)): active; positive
- mutagenic call (Species/Cell Type: Saccharomyces cerevisiae, Assay Type: Mitotic recombination or gene conversion, Assay Code: YEH+, Evaluation Type: Evaluation A (Pre-1980)): active; positive
- mutagenic call [3]: active; positive

SMILES: Cc1ccc(F)c2ccc3c4ccccc4ccc3c12
- mutagenic call (Species/Cell Type: Salmonella typhimurium (one or more of the five standard strains: TA98, TA100, TA1535, TA1537, and TA1538), Assay Type: Histidine reverse gene mutation, Ames assay, Assay Code: SALT, Evaluation Type: Evaluation A (Pre-1980)): no conclusion

SMILES: c1c(N2CC2)nc(N2CC2)nc1N1CC1
- mutagenic call (Species/Cell Type: Aspergillus nidulans, Assay Type: Reverse gene mutation, Assay Code: ASR+, Evaluation Type: Evaluation A (Pre-1980)): active; positive

SMILES: Cc1c2cc[n+](C)cc2c(C)c2c1[nH]c1ccc(O)cc12
- mutagenic call [4]: active; positive

SMILES: CS(=O)(=O)OCC#CCOS(C)(=O)=O
- mutagenic call [7]: active; positive

Reference: PubChem BioAssay AID1259408 (Genetic Toxicology Data Bank (GENE-TOX), 2018)
